SMILES strings stand for the structures.

The results in this text go back to patent publication US20140228440A1, “1-AMINO-ALKYLCYCLOHEXANE DERIVATIVES FOR THE TREATMENT OF INFLAMMATORY SKIN DISEASES” (MERZ PHARMA GmbH & CO. KGaA, priority 2008, published 2014).

Assay [1] relates to Staphylococcus aureus ATCC 6538. As to the kind of experiment: MIC by the agar dilution method. The following applies: pH 5.5. It is filed as cell-based. On the procedure: (§1) To assess the anti-microbial potency of Neramexane against bacteria strains which are relevant for atopic dermatitis and localized skin infections (“impetigo”), the minimal inhibitory concentration (MIC) against the following bacteria is established:
(§2) The MICs of the samples are determined using the agar dilution method based on DIN 58940. Petri dishes of 5.5 cm diameter are poured with 2.5 ml of freshly prepared Mueller-Hinton agar 2-fold concentrated (Merck company, Cat-No 1.05437), pH 5.5, maintained in liquid form at 50° C., to which the sample dilutions at various concentrations has been added at 50.0 vol.-%.
(§3) Neramexane-Mesylate is tested in the concentration range of 6.25-1*10^−2%. All test solutions are adjusted to pH 5.5.
(§4) For inoculation, 1 μl of the respective germ suspension is placed on the centre of each agar plate. After drying, inoculated plates are incubated at 36.0±2.0° C. The basis for the length of incubation period is the respective growth control cultivated in parallel.
(§5) The test microbe suspension is prepared by inoculating a few individual colonies of the respective bacteria into sterile saline solution until a turbidity corresponding to the McFarland standard 1.0 (approximately 10^8 cfu/ml) is reached. After that, the test microbe suspensions are further diluted 1:10 with saline solution and the microbial counts (see Table 33) are determined by the surface spread method using a spiral plater.
(§6) The agar plates are incubated under the conditions given in Table 34 and subsequently evaluated. The MIC-values as given represent the lowest concentration of the active substance at which there is no macroscopically visible growth. Minimal, barely visible growth or few small individual colonies are evaluated as inhibition.
(§7) The growth of bacteria is indicated for the duplicate plates by a +(i.e., growth) or a −(i.e., no growth), +− indicates weak growth on both plates or growth on one plate and no growth on the other plate. Both bacteria-strains show appropriate growth on the respective control plate not containing any test compound. No influence of the used diluent (Aqua purifacata) is observed. No contamination is observed on the control-plates. In general it has to be considered that values determined by the used method can vary by a factor of 2 (for 1:2 dilutions).
(Agar dilution tests growth on a series of plates holding different concentrations.)

For assay [2], the system named is Streptococcus pyogenes ATCC 12344. Put plainly: MIC by the agar dilution method. The class given is cell-based. The following applies: pH 5.5, compared with Staphylococcus aureus. As for the experimental part: as §1, §2, §3, §4, §5, §6, §7
For another assay, the system named is Propionibacterium acnes. As to the kind of experiment: Log reduction assay. The following applies: log reduction experiment. It is filed as cell-based. As for the experimental part: In order to determine the efficacy of Neramexane against a specific microorganism population (i.e., Propionibacterium acnes), a log reduction assay is performed. The organisms are prepared by inoculating the fluid thioglycolate (FTM). The microorganism is then incubated at 35.2±2.5° C. for 24 hours. The microbial suspension is adjusted to approximately 107 to 108 colony forming units (CFU) per mL and labeled as the stock suspension. […] Then […] is transferred into 11 mL of DI water to prepare a 3.125% solution. This solution is then inoculated with the microorganism and tested at time intervals of 30 seconds, 1 minute, and 5 minutes. One milliliter from each dilution is spread plated in duplicate onto tryptic soy agar with 5% sheep blood. The plates are incubated anaerobically at 35.2±2.5° C. for a minimum of 48 hours. The same procedure is repeated for the Phosphate Buffer Saline control. After the incubation period, all plates are counted to determine the number of microorganisms remaining at each time point. The concentration of each microorganism for the control and product is calculated for each interval. The log reduction is calculated to determine the change (reduction or increase) of the microorganism population relative to a starting inoculum. The minimum required bactericidal concentration is defined as a 3 log reduction from the initial inoculum.

Assay [3] concerns DNFB-induced contact hypersensitivity (ear swelling response). Put plainly: Contact hypersensitivity (CHS) mouse model. The following applies: i.p. 5 mg/kg 1 hr before.
Assay [4] concerns ear swelling response induced by croton oil. Put plainly: Irritant dermatitis mouse model (croton oil). It is filed as in vivo, C57BL/6N male mice. The following applies: i.p. 5 mg/kg 1 hr before, 3.2 mg/kg 1 hr and 3 hr after irritation; 7 hours and 24 hours. On the procedure: In order to further test for antiinflammatory properties, an irritant dermatitis mouse model is used. Induction of an ear swelling response by croton oil is a toxic reaction. This response is a concentration-dependent phenomenon, independent of sensitized lymphocytes.
20 μl of 1% croton oil in acetone is applied on the left ear. Ear swelling is measured after 7 hours and 24 hours. Ear swelling is quantified with a springloaded micrometer. […] An additional group is treated with neramexane (as described above) and croton oil.
Sensitization results are analyzed using student test (comparison between treatment and positive control).

For the compound `CC1(C)CC(C)(C)CC(C)(N)C1` [Neramexane, 1-amino-1,3,3,5,5-pentamethylcyclohexane], the figures for the antibacterial activity entry (in assay [1]; in assay [2]; in the assay on Propionibacterium acnes) were “exhibits antibacterial activity with respect to Staphylococcus aureus”, “acts even to greater extend against Streptococcus pyogenes” and “exhibits antibacterial activity against Propionibacterium acnes”, respectively. Further, the ear swelling response entry in assay [3] (3.2 mg/kg 1 hr and 3 hr after challenge, 24 hours after elicitation) was “significantly reduces ear swelling response”. For the same compound, the “induction of an immune response (sensitization)” value in assay [3] (3.2 mg/kg 1 hr and 3 hr after sensitization) is recorded as “does not appear to have an impact on the induction of an immune response”. Besides, in assay [4], the “ear swelling response induced by croton oil” value is given as “reduces the ear swelling response induced by croton oil to some degree”.
